From article PMC3758320, “Fate of Ingested Clostridium difficile Spores in Mice” (PLoS ONE, 2013)
pIC50: −log10 of the molar value.

What was measured:
Vero cells [1] = test: C. difficile toxin-induced cell death (spent media on Vero cells); format: cell-based; details: 200 µM; Vero cells exposed 24 hours
Description: C. difficile strain 630 spores were washed five times with nanopure water, heat activated at 68°C for 30 minutes and washed five more times with water. Spore pellets were resuspended in 0.1 M sodium phosphate buffer supplemented with 0.5% sodium bicarbonate (pH 6.0) to an OD580 of 1.0. […] Spore suspensions were incubated anaerobically at 37°C overnight. The following day, C. difficile cells and spores were removed by centrifugation and spent media filter sterilized. In parallel, Vero and Caco-2 cells were cultured in 96-well plates, as described above. The mammalian cell cultures were then exposed to varying concentrations of sterile spent media for 24 hours. Cell viability was determined as before with the CellTiter Glo viability kit. The luminescence signals from cell cultures supplemented with 0% spent media were set as 100% cell viability. Percent survival for other conditions was calculated relative to these untreated cells.

L. gasseri [2] = test: Stability after incubation with BSH-producing bacteria (L. gasseri); details: 24 hours, 6 mM bile salt
L. gasseri [3] = format: cell-based
[4] = Stability in artificial intestinal juice; format: in vitro ADME; details: 24 hours incubation, 37°C, TLC
Description: (§1) CamSA was analyzed for stability in simulated gastric and intestinal juices as published. Briefly, 100 mg CamSA was added to 1 ml of either artificial intestinal or artificial gastric juice and incubated at 37°C. Aliquots were taken at 4, 8, 12, and 24 hours. Samples (1 µl) were spotted on silica TLC plates and allowed to air dry. Plates were developed with 75% ethyl acetate/methanol. TLC plates were visualized by spraying with a 10% wt/vol phosphomolybdic acid (PMA)/ethanol solution followed by heating at 100°C for 2 minutes. Quantification of CamSA was determined using a GE Healthcare Typhoon 9410 Variable Mode Imager and analyzed using ImageQuant TL 5.2 software.

C. difficile spores [5] = test: Outgrowth of C. difficile spores in germination medium; format: cell-based, C. difficile strain 630; details: 200 µM in medium, overnight
[6] = Stability in artificial gastric juice; format: in vitro ADME; details: 24 hours incubation, 37°C, TLC
Description: as §1

Caco-2 cells = test: Cytotoxicity in Caco-2 cells; format: cell-based; details: overnight
Description: (§2) Vero cells, Caco-2 cells, and murine macrophages J774A.1 were seeded in complete medium (minimum essential medium (MEM), 10% fetal bovine serum (FBS), and 1% penicillin/streptomycin). Cells were grown at 37°C with 5% CO2. Cells were detached by incubation with 1 mM EDTA-trypsin for 5 minutes. Complete medium was then added and monolayers lifted with a cell scraper. Cells were recovered at 800×g for 5 minutes at room temperature and the cell pellet was resuspended in fresh complete medium. A sample of cell suspension was treated with trypan blue to determine background non-viable cells. […]
(§3) The 12-well plates containing cell cultures were used as a qualitative method to determine cytotoxicity by visual observation of morphological changes, such as cell rounding. Cell viability was also determined by trypan blue dye exclusion staining. The 96-well plates cultured with mammalian cells were used as a quantitative method to determine cytotoxicity using the CellTiter Glo Luminescent cell viability assay. This assay quantitates the concentration of ATP, which indicates metabolically active cells. […] Luminescence was read with an integration time of 1 second per well using a Tecan Infinite 200 plate reader and iControl software. The luminescence signals from cell cultures supplemented with DMSO only were set as 100% cell viability. […]

C. difficile = test: Effect on bacterial growth (C. difficile vegetative cells); format: cell-based; details: 10 mM in growth medium, OD580 over 8 hours
Description: (§4) Laboratory strains of E. coli DH5α, B. longum, L. gasseri, and C. difficile were individually inoculated from freezer stock onto appropriate agar medium as directed by ATCC. Plates were incubated overnight at 37°C either aerobically (L. gasseri and E. coli) or anaerobically (C. difficile and B. longum). Anaerobic conditions consisted of a 5% CO2, 10% H2, and 85% N2 environment. Single cell clones were carefully selected and used to inoculate 5 mL of liquid medium. Inoculated broth was shaken at 37°C for approximately four hours until optical density at 580 nm reached 0.8 representing exponential phase of growth. […] An increase of optical density at 580 nm (OD580) was used to measure exponential bacterial growth. The OD580 was recorded at 0, 1, 2, 3, 4, 6, and 8 hours post subculture inoculation. Growth inhibition was determined by comparing optical density of bile salt-treated cultures with untreated control cultures.

C. difficile spores [7] = test: Onset of CDI signs in mice (timing of dosage); format: in vivo, C57BL/6N mice
Description: Antibiotic treated mice were challenged by oral gavage with 10^8 CFUs of C. difficile strain 630 spores. Individual groups of five mice were treated with a single 300 mg/kg dose of CamSA at 0, 6, 9 or 12 hours post-spore challenge. A second 300 mg/kg dose of CamSA was administered 24 hours after the first dose.

C. difficile spores [8] = system: C. difficile spores; design: method as in PMID 23420906; details: single 50 mg/kg dose; without any observable toxicity; cited from earlier work
Vero cells [9] = test: Cytotoxicity in Vero cells; format: cell-based; details: overnight
Description: as §2, §3

C. difficile spores [10] = test: Enumeration of C. difficile vegetative cells and spores in GI contents and feces of treated mice; format: in vivo, C57BL/6N mice
Description: Cages from infected animals were changed and feces were collected at different time points. Selected animals were sacrificed at different time points and their GI tract observed for signs of disease. Gastrointestinal tracts were removed in blocks and GI tract contents were flushed with autoclaved water. Feces and intestinal contents were weighed and homogenized in autoclaved water. Aliquots of the fecal suspensions were heated to 68°C for 30 minutes. Heated and unheated feces and GI tract contents were serially diluted in water and plated on Clostridium difficile selective agar (CDSA). Plates were incubated anaerobically for 48 hours and colonies were counted to enumerate colony-forming units (CFUs). CFUs obtained from unheated samples represent the sum of C. difficile vegetative cells and spores. CFUs obtained from heated samples represent the number of C. difficile spores only. The presence of C. difficile was verified by PRO disk.

E. coli [11] = test: Effect on bacterial growth (E. coli); format: cell-based, E. coli DH5α; details: 10 mM in growth medium, OD580 over 8 hours
Description: as §4

mice [12] = test: Acute toxicity in mice (Fixed Dose Procedure); details: oral gavage, three consecutive days, doses up to saturating 300 mg/kg
[13] = Stability in growth medium alone; format: in vitro ADME
Description: Following previous procedures, Escherichia coli DH5α, Bifidobacterium longum (ATCC BAA-999) and Lactobacillus gasseri (ATCC 33323) were incubated for 24 hours at 37°C. […] Samples of spent media were taken at 4, 8, 12, and 24 hours. Bile salt concentration was monitored by TLC as above. Percent conjugated bile salts were derived by dividing the intensity of TLC spots obtained at different times by the intensity of the TLC spot obtained before incubation.

B. longum [14] = format: cell-based
C. difficile spores [15] = test: Prevention of CDI by bile salt analogs in mice challenged with C. difficile spores; format: in vivo, C57BL/6N mice; details: for CDI signs: mice challenged with 10^8 CFU C. difficile spores, three doses
Caco-2 cell monolayer = test: Caco-2 permeability assay
E. coli [16] = test: Stability after incubation with E. coli cultures; details: 24 hour incubation
B. longum [17] = test: Stability after incubation with BSH-producing bacteria (B. longum); details: 24 hours, 6 mM bile salt
[18] = system: murine macrophages J774A.1; test: Cytotoxicity in murine macrophages J774A.1; format: cell-based; details: macrophage cells, overnight
Description: as §2, §3

[19] = Caco-2 permeability assay; details: human, Caco-2
mice [20] = details: mouse, in vivo, po
Description: CamSA was dissolved in DMSO to a concentration of 100 mg/ml. […] A control group was administered DMSO.

[21] = system: C. difficile spore germination; design: method as in PMID 21478359; details: in vitro; read-out: IC50, inhibition of C. difficile spore germination; cited from earlier work
[22] = 300 mg/kg given at 9 or 12 hours post-challenge
[23] = Caco-2, 10 µM, 2 hour incubation

SMILES: C[C@H](CCC(=O)Nc1cccc(S(=O)(=O)O)c1)[C@H]1CC[C@H]2[C@@H]3[C@H](O)C[C@@H]4C[C@H](O)CC[C@]4(C)[C@H]3C[C@H](O)[C@]12C [CamSA]
- cell killing by spent media from treated bacterial cultures (Vero cells [1]): less effective at killing epithelial cells
- fraction hydrolyzed to cholic acid by L. gasseri culture (L. gasseri [2]): Less than 30%
- growth of L. gasseri (L. gasseri [3]): unaffected
- degradation in artificial intestinal juice [4]: No degradation
- bacterial growth from C. difficile spores (C. difficile spores [5]): reduced but not eliminated
- degradation in artificial gastric juice [6]: No degradation
- cell viability, visual observation and trypan blue staining (Caco-2 cells): appeared healthy
- growth of C. difficile cells (C. difficile): grew normally
- CDI outcome (C. difficile spores [7]; [22]): developed severe CDI
- time to clinical endpoint post infection (C. difficile spores [7]; [22]): 48 h
- protection from CDI (C. difficile spores [7]; 300 mg/kg given up to 6 hours post-challenge): fully protected from CDI
- prevention of CDI in mice (C. difficile spores [8]): prevented CDI
- cell viability, visual observation and trypan blue staining (Vero cells [9]): appeared healthy
- C. difficile vegetative cells in feces compared to spore counts (C. difficile spores [10]; mice treated with 50 mg/kg): < 10%
- C. difficile content of feces (C. difficile spores [10]; treated mice): almost exclusively spores
- spores recovered from the cecum and colon (C. difficile spores [10]; treated mice, before the decrease (up to 72 hours after spore challenge)): greater than 12×10^5 CFUs
- spores recovered from the cecum and colon (C. difficile spores [10]; treated mice, by 96 hours after spore challenge): less than 2×10^5 CFUs
- duration of excretion of ingested C. difficile spores post-challenge (C. difficile spores [10]; treated mice, feces): at least 96 hours
- start of excretion of ingested C. difficile spores post-challenge (C. difficile spores [10]; treated mice, feces): 2 h
- growth of E. coli (E. coli [11]): unaffected
- physical adverse effects or weight loss (mice [12]): No physical adverse effects or weight loss
- degradation in growth medium alone [13]: not degraded
- growth of B. longum (B. longum [14]): unaffected
- CDI signs (C. difficile spores [15]; 50 mg/kg oral gavage): no sign of CDI
- CDI signs (C. difficile spores [15]; 300 mg/kg oral gavage): no sign of CDI
- time without signs of CDI post-challenge (C. difficile spores [15]; treated, spore-challenged mice): ≥ 14 days
- Comment: efflux (Caco-2 cell monolayer; 10 µM, two hours): Efflux substrate
- Comment: permeability ranking (Caco-2 cell monolayer; 10 µM, two hours): Low (Low (Papp < 0.5))
- Efflux Ratio (Caco-2 cell monolayer; 10 µM, two hours, >2 indicates significant efflux activity): >2
- apical to basolateral apparent permeability coefficient (Papp) (Caco-2 cell monolayer; [23]): < 10^−6 cm/s
- basolateral to apical Papp (Caco-2 cell monolayer; [23]): 10.9 ×10⁻⁶ cm/s
- recovery (Caco-2 cell monolayer; both A→B and B→A assays): 100%
- stability in E. coli cultures (E. coli [16]): stable
- hydrolysis to cholic acid by B. longum culture (B. longum [17]): hydrolyzed to cholic acid at similar rates
- cell viability, visual observation and trypan blue staining [18]: appeared healthy

SMILES: CNC(=C[N+](=O)[O-])NCCSCc1ccc(CN(C)C)o1 [Ranitidine]
- Papp A→B at 2 h, 10 µM [19]: 0.3 ×10⁻⁶ cm/s
- Papp at 2 h, 10 µM [19]: < 0.5 ×10⁻⁶ cm/s
- efflux ratio at 2 h, 10 µM [19]: 5.3

SMILES: CC(=O)CC(c1ccccc1)c1c(O)c2ccccc2oc1=O (centres unmarked) [Warfarin]
- Papp A→B at 2 h, 10 µM [19]: 42.9 ×10⁻⁶ cm/s
- Papp B→A at 2 h, 10 µM [19]: 16 ×10⁻⁶ cm/s
- Papp at 2 h, 10 µM [19]: > 5 ×10⁻⁶ cm/s
- efflux ratio at 2 h, 10 µM [19]: 0.4

SMILES: C[C@H](CCC(=O)O)[C@H]1CC[C@H]2[C@@H]3[C@H](O)C[C@@H]4C[C@H](O)CC[C@]4(C)[C@H]3CC[C@]12C [chenodeoxycholate]
- observable side effects (mice [20]; 50 mg/kg): did not cause any observable side effects
- acute toxicity outcome (mice [20]; 300 mg/kg): immediate death
- delay of CDI onset (C. difficile spores [15]; 50 mg/kg): 24 h
- CDI signs (C. difficile spores [15]; 50 mg/kg oral gavage): moderate to severe signs of CDI
- pIC50 [21]: 3.63
